Assay results: ChEMBL document CHEMBL1201862, “PubChem BioAssay data set” (2004)
Active and inactive are the calls of the source.

Columns and labels:
Protein RecA = molecular target: T1, Protein RecA (Mycobacterium tuberculosis, UniProt P9WHJ3); test: Fluorescence Cell-Free Homogeneous Dose Retest to Identify Inhibitors of RecA-Intein Splicing Activity. [Related pubchem assays (depositor defined):AID2097, AID2223, AID489010, AID492950]; format: functional
T1 sequence (P9WHJ3 whole entry): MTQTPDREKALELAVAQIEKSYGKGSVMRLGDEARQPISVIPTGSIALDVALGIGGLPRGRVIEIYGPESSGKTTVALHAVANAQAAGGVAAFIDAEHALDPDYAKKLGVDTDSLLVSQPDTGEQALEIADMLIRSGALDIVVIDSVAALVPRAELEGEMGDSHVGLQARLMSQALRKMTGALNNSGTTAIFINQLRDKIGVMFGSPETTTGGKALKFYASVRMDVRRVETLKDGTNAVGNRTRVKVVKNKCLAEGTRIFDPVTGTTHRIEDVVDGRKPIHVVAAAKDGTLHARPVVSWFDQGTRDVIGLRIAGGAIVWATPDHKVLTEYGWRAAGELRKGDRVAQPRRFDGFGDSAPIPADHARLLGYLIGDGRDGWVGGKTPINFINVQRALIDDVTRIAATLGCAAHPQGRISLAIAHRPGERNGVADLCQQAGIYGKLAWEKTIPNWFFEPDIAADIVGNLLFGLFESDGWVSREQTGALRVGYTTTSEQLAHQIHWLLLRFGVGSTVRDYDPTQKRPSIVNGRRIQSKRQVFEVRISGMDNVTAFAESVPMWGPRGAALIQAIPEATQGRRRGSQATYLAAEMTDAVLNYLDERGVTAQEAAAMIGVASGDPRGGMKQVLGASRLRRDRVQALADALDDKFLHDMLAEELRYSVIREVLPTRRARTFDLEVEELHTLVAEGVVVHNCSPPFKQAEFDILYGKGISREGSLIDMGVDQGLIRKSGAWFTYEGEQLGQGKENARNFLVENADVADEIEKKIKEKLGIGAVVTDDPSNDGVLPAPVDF

HEK293 = test: inhibitors of LMP1-driven NF-kB reporter, dose response, cell-based, HEK293, luciferase, cherry-pick (AID 588343); format: functional; settings: Homo sapiens
Genome polyprotein = Genome polyprotein (dengue virus type 2, UniProt P29990); test: Dengue-2 NS5 methyltransferase inhibitors, primary screen, biochemical, confirmation dose response (AID 588689); format: functional
[1] = molecular target: Latent membrane protein 1 (Human herpesvirus 4 (strain B95-8), UniProt P03230); test: TES1-eGFP NF-kB reporter inhibition versus Tet-On dsRED, dose response, selectivity assay for LMP1 NF-kB inhibitor project, imaging, HEK293T, dual-color eGFP/dsRED, cherry-picks (AID 588398); format: functional, cell-based
[2] = molecular target: T2, Long-chain-fatty-acid--AMP ligase FadD28 (Mycobacterium tuberculosis, UniProt P9WQ59); test: Fluorescence polarization aasay to screen for inhibitors that compete for the binding of FadD28 to a bisubstrate Measured in Biochemical System Using Plate Reader - 2147-01_Inhibitor_Dose_CherryPick_Activity.; format: functional, Mycobacterium tuberculosis H37Rv
T2 sequence (P9WQ59 whole entry): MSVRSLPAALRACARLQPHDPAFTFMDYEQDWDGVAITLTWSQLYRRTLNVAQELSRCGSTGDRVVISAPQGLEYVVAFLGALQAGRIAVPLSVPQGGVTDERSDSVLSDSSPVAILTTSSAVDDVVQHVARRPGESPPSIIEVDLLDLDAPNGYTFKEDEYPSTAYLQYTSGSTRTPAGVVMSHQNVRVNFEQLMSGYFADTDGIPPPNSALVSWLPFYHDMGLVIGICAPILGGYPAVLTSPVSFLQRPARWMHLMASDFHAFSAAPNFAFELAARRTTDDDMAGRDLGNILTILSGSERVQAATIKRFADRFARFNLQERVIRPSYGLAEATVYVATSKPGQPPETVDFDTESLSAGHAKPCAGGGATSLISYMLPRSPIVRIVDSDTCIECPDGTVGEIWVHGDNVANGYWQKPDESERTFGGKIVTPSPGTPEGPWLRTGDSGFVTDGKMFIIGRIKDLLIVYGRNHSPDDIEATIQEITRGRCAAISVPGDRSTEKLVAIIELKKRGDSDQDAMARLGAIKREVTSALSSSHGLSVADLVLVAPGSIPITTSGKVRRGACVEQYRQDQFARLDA

Vero = Vero cell cytotoxicity, cytotoxicity control for flavivirus capping enzyme inhibitors (AID 588742); format: functional; settings: Chlorocebus sabaeus
[3] = molecular target: T3, Replicative DNA helicase DnaB (Mycobacterium tuberculosis, UniProt P9WMR3); test: DnaB intein splicing inhibitors, dose response, biochemical, cell-free fluorescence (AID 449749); format: functional
T3 sequence (P9WMR3 whole entry): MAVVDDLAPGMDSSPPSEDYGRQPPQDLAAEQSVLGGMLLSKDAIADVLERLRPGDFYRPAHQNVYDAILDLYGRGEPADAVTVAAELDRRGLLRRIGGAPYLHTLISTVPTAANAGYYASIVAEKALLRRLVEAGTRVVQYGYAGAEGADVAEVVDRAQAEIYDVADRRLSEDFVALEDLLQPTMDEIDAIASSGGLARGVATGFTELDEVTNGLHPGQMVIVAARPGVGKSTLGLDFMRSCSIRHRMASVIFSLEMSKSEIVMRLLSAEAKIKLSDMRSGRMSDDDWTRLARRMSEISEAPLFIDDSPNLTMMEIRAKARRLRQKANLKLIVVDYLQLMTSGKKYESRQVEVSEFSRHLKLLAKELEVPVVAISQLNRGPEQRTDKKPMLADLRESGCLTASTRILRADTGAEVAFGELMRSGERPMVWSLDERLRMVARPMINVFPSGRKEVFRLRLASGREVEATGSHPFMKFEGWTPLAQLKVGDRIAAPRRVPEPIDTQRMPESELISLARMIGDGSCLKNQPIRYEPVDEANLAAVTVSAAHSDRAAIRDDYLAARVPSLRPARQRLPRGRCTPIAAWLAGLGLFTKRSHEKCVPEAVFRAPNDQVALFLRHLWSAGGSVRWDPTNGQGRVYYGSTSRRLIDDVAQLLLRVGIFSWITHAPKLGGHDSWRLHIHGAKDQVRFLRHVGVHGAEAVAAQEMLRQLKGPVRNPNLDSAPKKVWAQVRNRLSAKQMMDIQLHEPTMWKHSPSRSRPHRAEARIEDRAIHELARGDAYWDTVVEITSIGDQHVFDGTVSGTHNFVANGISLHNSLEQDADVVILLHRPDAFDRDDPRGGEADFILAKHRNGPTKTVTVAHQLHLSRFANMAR

[4] = molecular target: Cyclin-dependent kinase 5/CDK5 activator 1 (Homo sapiens, UniProt Q00535); test: CDK5-p25 kinase inhibitors, specificity check, dose response, selectivity assay for GSK-3 alpha inhibitor project, biochemical, microfluidic mobility shift, dry powder (AID 588430)
[5] = molecular target: Glycogen synthase kinase-3 beta (Homo sapiens, UniProt P49841); test: Inhibition of Human GSK-3 beta Activity Measured in Biochemical System Using Microfluidics - 2063-05_Inhibitor_Dose_DryPowder_Activity_Set2. [Related pubchem assays (depositor defined):AID2709]
[6] = molecular target: Glycogen synthase kinase-3 alpha (Homo sapiens, UniProt P49840); test: Inhibition of Human GSK-3 alpha Activity Measured in Biochemical System Using Microfluidics - 2063-06_Inhibitor_Dose_DryPowder_Activity_Set2. [Related pubchem assays (depositor defined):AID2709]
Chain of Glycogen synthase kinase-3 alpha (P49840 whole entry): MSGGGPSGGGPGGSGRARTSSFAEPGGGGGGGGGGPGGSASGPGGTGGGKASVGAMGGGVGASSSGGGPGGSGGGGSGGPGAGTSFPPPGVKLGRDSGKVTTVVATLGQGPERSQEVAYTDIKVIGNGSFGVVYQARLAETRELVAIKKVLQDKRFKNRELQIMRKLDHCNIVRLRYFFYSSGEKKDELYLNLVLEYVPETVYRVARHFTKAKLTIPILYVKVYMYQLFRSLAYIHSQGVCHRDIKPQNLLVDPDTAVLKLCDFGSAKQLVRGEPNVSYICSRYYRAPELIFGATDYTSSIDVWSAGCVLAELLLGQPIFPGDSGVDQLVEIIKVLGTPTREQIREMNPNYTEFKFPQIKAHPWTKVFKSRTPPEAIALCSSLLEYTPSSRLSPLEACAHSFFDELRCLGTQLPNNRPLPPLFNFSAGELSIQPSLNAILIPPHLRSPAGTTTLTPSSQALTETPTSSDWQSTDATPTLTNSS

Chain of Cyclin-dependent kinase 5/CDK5 activator 1 (Q00535 whole entry): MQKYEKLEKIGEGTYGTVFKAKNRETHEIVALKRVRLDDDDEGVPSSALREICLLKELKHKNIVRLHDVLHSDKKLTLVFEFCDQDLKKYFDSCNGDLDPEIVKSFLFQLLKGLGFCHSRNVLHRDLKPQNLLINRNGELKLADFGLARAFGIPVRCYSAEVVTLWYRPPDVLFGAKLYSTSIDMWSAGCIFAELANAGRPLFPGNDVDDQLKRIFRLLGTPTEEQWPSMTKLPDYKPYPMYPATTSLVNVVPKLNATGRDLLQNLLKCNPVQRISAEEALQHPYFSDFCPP
Chain of Cyclin-dependent kinase 5/CDK5 activator 1 (Q15078 whole entry, further chain): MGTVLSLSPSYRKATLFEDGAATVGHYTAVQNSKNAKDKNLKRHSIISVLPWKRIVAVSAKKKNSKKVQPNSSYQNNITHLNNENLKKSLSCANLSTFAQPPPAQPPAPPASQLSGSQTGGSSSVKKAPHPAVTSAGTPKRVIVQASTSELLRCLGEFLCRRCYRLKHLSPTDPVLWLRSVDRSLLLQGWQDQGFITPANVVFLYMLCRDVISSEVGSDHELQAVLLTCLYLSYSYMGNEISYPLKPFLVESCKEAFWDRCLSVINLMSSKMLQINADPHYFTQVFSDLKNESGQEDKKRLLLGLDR
Chain of Glycogen synthase kinase-3 beta (P49841 whole entry): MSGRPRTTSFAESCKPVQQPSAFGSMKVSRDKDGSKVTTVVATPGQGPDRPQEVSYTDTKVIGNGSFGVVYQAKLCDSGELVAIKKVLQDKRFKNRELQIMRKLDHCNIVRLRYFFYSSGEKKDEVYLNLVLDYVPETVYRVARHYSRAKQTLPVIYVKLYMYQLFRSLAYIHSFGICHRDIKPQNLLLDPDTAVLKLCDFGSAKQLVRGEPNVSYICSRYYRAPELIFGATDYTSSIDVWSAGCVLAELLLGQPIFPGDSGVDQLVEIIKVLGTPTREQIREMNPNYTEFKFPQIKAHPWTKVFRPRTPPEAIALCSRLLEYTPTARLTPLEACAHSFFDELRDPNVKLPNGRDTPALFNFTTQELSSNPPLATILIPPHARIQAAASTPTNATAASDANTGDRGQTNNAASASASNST
Chain of Genome polyprotein (P29990 2492-3391 limits assumed): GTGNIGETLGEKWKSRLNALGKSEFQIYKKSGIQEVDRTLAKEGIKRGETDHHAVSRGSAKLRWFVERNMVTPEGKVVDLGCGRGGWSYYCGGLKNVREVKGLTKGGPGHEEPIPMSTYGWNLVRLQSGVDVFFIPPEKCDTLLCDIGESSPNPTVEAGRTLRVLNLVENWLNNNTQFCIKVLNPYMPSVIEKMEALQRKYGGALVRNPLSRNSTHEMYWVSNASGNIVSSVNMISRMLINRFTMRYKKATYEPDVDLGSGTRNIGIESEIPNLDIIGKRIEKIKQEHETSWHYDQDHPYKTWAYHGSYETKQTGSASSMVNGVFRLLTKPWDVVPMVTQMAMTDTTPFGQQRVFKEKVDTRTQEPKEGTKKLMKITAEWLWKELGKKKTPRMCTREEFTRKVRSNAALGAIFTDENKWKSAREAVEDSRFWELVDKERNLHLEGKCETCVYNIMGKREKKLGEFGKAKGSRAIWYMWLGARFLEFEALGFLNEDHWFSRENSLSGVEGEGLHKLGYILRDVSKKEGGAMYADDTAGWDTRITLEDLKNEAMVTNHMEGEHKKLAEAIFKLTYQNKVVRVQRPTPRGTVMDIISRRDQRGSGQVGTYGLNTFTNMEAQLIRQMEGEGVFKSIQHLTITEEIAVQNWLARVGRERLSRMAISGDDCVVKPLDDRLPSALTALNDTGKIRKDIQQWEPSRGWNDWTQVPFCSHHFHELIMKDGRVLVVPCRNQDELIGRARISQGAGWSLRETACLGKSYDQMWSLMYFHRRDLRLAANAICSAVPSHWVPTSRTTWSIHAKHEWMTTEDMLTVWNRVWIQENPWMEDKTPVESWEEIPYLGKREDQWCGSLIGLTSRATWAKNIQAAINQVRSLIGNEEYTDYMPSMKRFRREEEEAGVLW
Chain of Latent membrane protein 1 (P03230 whole entry): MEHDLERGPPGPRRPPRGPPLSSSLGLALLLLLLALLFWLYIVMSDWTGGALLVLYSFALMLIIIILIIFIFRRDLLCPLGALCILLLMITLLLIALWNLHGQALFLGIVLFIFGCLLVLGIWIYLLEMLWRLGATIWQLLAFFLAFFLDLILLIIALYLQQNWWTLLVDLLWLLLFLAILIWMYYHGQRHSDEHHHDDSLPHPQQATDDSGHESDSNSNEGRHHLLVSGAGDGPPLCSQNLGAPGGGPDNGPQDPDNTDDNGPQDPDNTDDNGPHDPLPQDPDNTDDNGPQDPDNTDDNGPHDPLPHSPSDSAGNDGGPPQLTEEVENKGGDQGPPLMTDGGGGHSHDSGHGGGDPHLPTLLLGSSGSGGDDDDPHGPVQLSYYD

CCc1ccc(/C=C/C(=O)C2C(=O)c3ccccc3C2=O)cc1
active: EC50 (Protein RecA) 22.7 µM | AC50 (HEK293) 4.59 µM | IC50 (Genome polyprotein) 62.8 µM | AC50 [1] 27.4 µM | AC50 [2] 80.4 µM | CC50 (Vero) 34.7 µM | AC50 [3] 51.1 µM

O=C1c2ccccc2-c2onc3ccc(NCCCN4CCNC4)c1c23
active: AC50 [4] 76.2 µM | AC50 [5] 0.161 µM | AC50 [6] 0.52 µM
